Measurements reported in patent US5169984A, “Synthesis and characterization of N-bromoacetyl-3,3'5-triiodo-L-thyronine using high speed countercurrent chromatography” (The United States of America as represented by the …, priority 1990, dated 1992).

Conditions: crude, prior to HSCCC; ethyl acetate, well-sealed container, -20° C., over four months
Experimental: Chromatograms were monitored by radioactivity. In FIG. 2A the sample was freshly prepared while in FIG. 2B the sample was stored for 4.2 months in ethyl acetate at -20° C. […] Other conditions were the same as in FIGS. 1A and 1B.

Q: For O=C(CBr)N[C@@H](Cc1cc(I)c(Oc2ccc(O)c(I)c2)c(I)c1)C(=O)O [BrAc[^125 I]T3, ^125 I-labeled N-bromoacetyl-3,3',5-triiodo-L-thyronine], which decomposition on storage is on record?
A: partial decomposition
